# Laboratory results as given in patent US20070128217A1 (priority 2003, published 2007).
# Experiments:
# [1] = tested on: antibodies in sera from SARS patients (sera 1a, 1b, 2, 6, 37, 62, London, SARS-yellow, SARS-green); assay type: binding, human; design: Binding of serum 6 to linear peptides of protein X1 of SARS-CoV Urbani / Binding of serum 37 to linear peptides of protein X1 of SARS-CoV Urbani / Binding of serum 6 to looped/cyclic peptide (PEPSCAN-ELISA) / Binding of serum 37 to looped/cyclic peptide (PEPSCAN-ELISA) / Binding of serum 37 to looped/cyclic peptides of protein X1 of SARS-CoV Urbani / Binding of serum 6 to linear peptides of protein X2 / Binding of serum 37 to linear peptides of protein X2 / Binding of serum 37 to looped/cyclic peptides of protein X2 of SARS-CoV Urbani / Binding of serum 6 to linear peptides of protein M of SARS-CoV Urbani / Binding of serum 37 to linear peptides of protein M of SARS-CoV Urbani / Binding of serum 6 to looped/cyclic peptides of protein M of SARS-CoV Urbani / Binding of serum 37 to looped/cyclic peptides of protein M of SARS-CoV Urbani / Binding of serum 6 to linear peptides of protein X3 of SARS-CoV Urbani / Binding of serum 37 to linear peptides of protein X3 of SARS-CoV Urbani / Binding of serum 37 to looped/cyclic peptides of protein X3 of SARS-CoV Urbani / Binding of serum 6 to linear peptides of protein X4 of SARS-CoV Urbani / Binding of serum 37 to linear peptides of protein X4 of SARS-CoV Urbani / Binding of serum 37 to looped/cyclic peptides of protein X4 of SARS-CoV Urbani / Binding of serum 6 to linear peptides of protein X5 of SARS-CoV Urbani / Binding of serum 37 to linear peptides of protein X5 of SARS-CoV Urbani / Binding of serum 37 to looped/cyclic peptides of protein X5 of SARS-CoV Urbani / Binding of serum 6 to linear peptides of protein N of SARS-CoV Urbani / Binding of serum 37 to linear peptides of protein N of SARS-CoV Urbani / Binding of serum 6 to linear peptide (PEPSCAN-ELISA) / Binding of serum 1a to looped/cyclic peptides of protein N of SARS-CoV Urbani / Binding of serum 1b to looped/cyclic peptides of protein N of SARS-CoV Urbani / Binding of serum 2 to looped/cyclic peptides of protein N of SARS-CoV Urbani / Binding of serum 6 to looped/cyclic peptides of protein N of SARS-CoV Urbani / Binding of serum 37 to looped/cyclic peptides of protein N of SARS-CoV Urbani / Binding of serum 62 to looped/cyclic peptides of protein N of SARS-CoV Urbani / Binding of serum London to looped/cyclic peptides of protein N of SARS-CoV Urbani / Binding of serum SARS-green to looped/cyclic peptides of protein N of SARS-CoV Urbani: unit not given here
# [2] = tested on: control sera (pooled serum of ten healthy LUMC hospital workers; commercial negative donor pooled serum from the Dutch bloodbank); assay type: binding, human; design: Binding of Control serum LUMC to linear peptides / Binding of Control serum Blood-bank to linear peptides / Binding of Control serum LUMC to looped peptides / Binding of Control Serum Blood-Bank to Looped peptides / Binding of Control serum LUMC to linear peptides of the protein M of SARS-CoV Urbani / Binding of Control serum Blood-bank to linear peptides of the protein M of SARS-CoV Urbani / Binding of Control serum LUMC to looped peptides of the protein M of SARS-CoV Urbani / Binding of Control Serum Blood-Bank to Looped peptides of the protein M of SARS-CoV Urbani: unit not given here
# [3] = tested on: rabbit serum obtained by immunizing a rabbit with the SARS-CoV strain Frankfurt 1; assay type: binding; design: Binding of a rabbit serum to linear peptides / Binding of a rabbit serum to looped peptides / Rabbit serum linear peptides / Rabbit serum looped peptides / Binding of a rabbit serum to linear peptides of protein N of SARS-CoV Urbani (Rabbit serum linear peptides) / Binding of a rabbit serum to looped/cyclic peptides of protein N of SARS-CoV Urbani (Rabbit serum looped peptides): unit not given here
# [4] = tested on: recombinant human anti-SARS-CoV antibody 03-018; assay type: binding; design: Binding of antibody 03-018 to linear peptides of the N protein of SARS-CoV Urbani / Binding of antibody 03-018 to looped/cyclic peptides of the N protein of SARS-CoV Urbani: unit not given here
Sequence,Binding of serum 1a to linear peptides of protein N of SARS-CoV Urbani [1],Binding of serum 1a to looped/cyclic peptides of protein N of SARS-CoV Urbani [1],Binding of serum 1b to linear peptides of protein N of SARS-CoV Urbani [1],Binding of serum 1b to looped/cyclic peptides of protein N of SARS-CoV Urbani [1],Binding of serum 2 to linear peptides of protein N of SARS-CoV Urbani [1],Binding of serum 2 to looped/cyclic peptides of protein N of SARS-CoV Urbani [1],Binding of serum 6 to linear peptides of protein N of SARS-CoV Urbani [1],Binding of serum 6 to looped/cyclic peptides of protein N of SARS-CoV Urbani [1],Binding of serum 37 to linear peptides of protein N of SARS-CoV Urbani [1],Binding of serum 37 to looped/cyclic peptides of protein N of SARS-CoV Urbani [1],Binding of serum 62 to linear peptides of protein N of SARS-CoV Urbani [1],Binding of serum 62 to looped/cyclic peptides of protein N of SARS-CoV Urbani [1],Binding of serum London to linear peptides of protein N of SARS-CoV Urbani [1],Binding of serum London to looped/cyclic peptides of protein N of SARS-CoV Urbani [1],Binding of serum SARS-green to looped/cyclic peptides of protein N of SARS-CoV Urbani [1],Binding of serum SARS-yellow to looped/cyclic peptides of protein N of SARS-CoV Urbani [1],Binding of a rabbit serum to linear peptides of protein N of SARS-CoV Urbani (Rabbit serum linear peptides) [3],Binding of a rabbit serum to looped/cyclic peptides of protein N of SARS-CoV Urbani (Rabbit serum looped peptides) [3],Binding of antibody 03-018 to linear peptides of the N protein of SARS-CoV Urbani [4],Binding of antibody 03-018 to looped/cyclic peptides of the N protein of SARS-CoV Urbani [4],also measured
TYHGAIKLDDKDPQF,0.3,0.2,0.1,0.1,0.1,0.2,0.2,0.1,0.8,0.3,1.1,0.2,0.6,0.3,0.0,0.2,0.1,0.2,0.1,0.1,Binding of serum SARS-green to linear peptides of protein N of SARS-CoV Urbani [1]: 0.4; Binding of serum SARS-yellow to linear peptides of protein N of SARS-CoV Urbani [1]: 0.7; Control Serum Blood-Bank Looped peptides [2]: 0.4; Control serum Blood-bank linear peptides [2]: 0.8; Control serum LUMC linear peptides [2]: 0.7; Control serum LUMC looped peptides [2]: 0.4
GGRNGARPKQRRPQG,0.3,0.2,0.2,0.1,0.3,0.2,0.2,0.2,0.7,0.4,0.8,0.3,0.5,0.2,0.2,0.2,0.2,0.8,0.2,0.2,Binding of serum SARS-green to linear peptides of protein N of SARS-CoV Urbani [1]: 2.6; Binding of serum SARS-yellow to linear peptides of protein N of SARS-CoV Urbani [1]: 0.6; Binding of Control Serum Blood-Bank to Looped peptides [2]: 0.5; Binding of Control serum Blood-bank to linear peptides [2]: 0.7; Binding of Control serum LUMC to linear peptides [2]: 0.6; Binding of Control serum LUMC to looped peptides [2]: 0.5
SGGGETALALLLLDR,,0.4,,0.2,,0.5,,0.3,,0.7,,0.7,,0.5,0.1,0.7,0.2,0.7,0.1,0.2,Binding of serum 1a to linear peptide (PEPSCAN-ELISA) [1]: 0.3; Binding of serum 1b to linear peptide (PEPSCAN-ELISA) [1]: 0.1; Binding of serum 2 to linear peptide (PEPSCAN-ELISA) [1]: 0.2; Binding of serum 6 to linear peptide (PEPSCAN-ELISA) [1]: 0.2; Binding of serum 37 to linear peptide (PEPSCAN-ELISA) [1]: 0.7; Binding of serum 62 to linear peptide (PEPSCAN-ELISA) [1]: 0.7; Binding of serum London to linear peptide (PEPSCAN-ELISA) [1]: 0.4; Binding of serum SARS-green to linear peptide (PEPSCAN-ELISA) [1]: 0.1; Binding of serum SARS-yellow to linear peptide (PEPSCAN-ELISA) [1]: 0.5; Binding of Control Serum Blood-Bank to Looped peptides [2]: 0.7; Binding of Control serum Blood-bank to linear peptides [2]: 0.7; Binding of Control serum LUMC to linear peptides [2]: 0.6; Binding of Control serum LUMC to looped peptides [2]: 0.7
WVATEGALNTPKDHI,0.2,0.3,0.1,0.2,0.3,0.3,0.2,0.2,0.7,0.5,0.9,0.4,0.6,0.4,0.4,0.2,0.1,0.2,0.1,0.2,Binding of serum SARS-green to linear peptides of protein N of SARS-CoV Urbani [1]: 0.6; Binding of serum SARS-yellow to linear peptides of protein N of SARS-CoV Urbani [1]: 0.6; Binding of Control Serum Blood-Bank to Looped peptides [2]: 0.5; Binding of Control serum Blood-bank to linear peptides [2]: 0.8; Binding of Control serum LUMC to linear peptides [2]: 0.9; Binding of Control serum LUMC to looped peptides [2]: 0.5
